Results published in publication PMC4446596, “Functional Diversity of Anti-Lipopolysaccharide Factor Isoforms in Shrimp and Their Characters Related to Antiviral Activity” (Marine Drugs, 2015).
Where a SMILES comes first, the peptide text is derived from it.

Experiments:
[1] = tested on: E. coli; assay: Inhibition zone test; format: cell-based, Escherichia coli; conditions: 20 μL of 64 μM peptide in PBS pH 7.4 on 6 mm filter paper, solid LB plate, 37 °C, 24 h
Method: (§1) Gram-negative bacteria, including Escherichia coli and Aeromonas hydrophila, and Gram-positive bacteria, including Micrococcus luteus and Bacillus simplex were used for antibacterial analyses. The strains were incubated in fresh LB medium overnight at 37 °C for E. coli, M. luteus and 28 °C for A. hydrophila, B. simplex.
(§2) The antibacterial activities of LBD peptides were examined by inhibition zone test. The overnight cultures of bacteria were diluted 100 times and cultured in LB medium at 37 °C (E. coli and M. luteus) or 28 °C (A. hydrophila and B. simplex) for 6 h. These cultures were then diluted 100 times with LB medium separately, and 200 μL solutions from each diluted cultures was taken out and spread on the solid LB medium plate uniformly. Sterile filter paper with a diameter of 6 mm was put on the surface of solid LB medium gently. Twenty microliters of 64 μM peptide solution dissolved in PBS (pH 7.4) was added to the center of filter paper with a diameter of 6 mm. Twenty microliters PBS and 20 μL of 64 μM pGFP peptide were used as negative controls. […] ampicillin solutions was used as the positive control for E. coli, M. luteus and B. simplex culture, and 50 μM kanamycin sulfates was used as the positive control for A. hydrophila culture. The plates were cultured at 37 °C (E. coli and M. luteus) or 28 °C (A. hydrophila and B. simplex) for 24 h.

[2] = tested on: A. hydrophila; assay: Inhibition zone test; format: cell-based, Aeromonas hydrophila; conditions: 20 μL of 64 μM peptide in PBS pH 7.4 on 6 mm filter paper, solid LB plate, 28 °C, 24 h
Method: as §1, §2

[3] = tested on: WSSV; assay: Antiviral activity detection: WSSV pre-incubated with peptide injected into E. carinicauda, in vivo WSSV copy number; design: species or system Exopalaemon carinicauda; conditions: E. carinicauda pleopods, 24 h post injection; WSSV (10^3 copies/μL) pre-incubated 2 h at room temperature with 50 μM peptide, 10 μL injected; VP28 real-time PCR; n = 15; WSSV group 1.21 × 10^5, blank 1.31 × 10^3
Method: Exopalaemon carinicauda is being regarded as a good crustacean model animal for WSSV infection experiments. In this study, healthy E. carinicauda with a body length of 5.43 ± 0.30 cm and a body weight of 2.62 ± 0.42 g were used as experimental animals for WSSV infection assay. Animals were acclimatized in the aerated seawater at 25 °C for 1 day before experiments.
In order to learn the effect of synthetic LBD peptides on WSSV infection, WSSV pre-incubated with different peptides was injected into E. carinicauda and the WSSV copy number in the pleopods of E. carinicauda was detected. E. carinicauda was classified into 13 groups and each group contained 18 to 20 individuals. The 13 groups were named as Blank, WSSV, pGFP, LBD1, LBD2, LBD3, LBD4, LBD5, LBD6, LBD7, sLBD2, LBD2-K and LBD4+K, respectively. Synthetic peptides were diluted into 50 μM with PBS (pH 7.4). WSSV was incubated with each peptide solution for 2 h at room temperature with a final concentration 10^3 copies/μL. […] For WSSV group, each shrimp was injected with 10 μL WSSV incubated with PBS (pH 7.4) for 2 h at room temperature. For the other groups (LBD1–LBD7, sLBD2, LBD2-K and LBD4+K), each shrimp was injected with 10 μL of WSSV solution after incubation with corresponding synthetic peptides, respectively. At 24 h post injection (hpi), the pleopods of 15 shrimps in each group were collected and the pleopods from three individuals were put together as one sample. Total DNA of each sample was extracted using the Genomic DNA Kit (Tiangen, China). The viral copy number was measured by detecting the level of VP28 using real-time PCR as described previously.

[4] = tested on: M. luteus; assay: Inhibition zone test; format: cell-based, Micrococcus luteus; conditions: 20 μL of 64 μM peptide in PBS pH 7.4 on 6 mm filter paper, solid LB plate, 37 °C, 24 h
Method: as §1, §2

| Compound | Inhibition zone [1] | Inhibition zone [2] | WSSV copy number [3] | Inhibition zone [4] |
| --- | --- | --- | --- | --- |
| CC[C@H](C)[C@@H]1NC(=O)[C@H](Cc2ccc(O)cc2)NC(=O)[C@@H]2CCCN2C(=O)[C@H](CCCCN)NC(=O)[C@H](C(C)C)NC(=O)[C@H]([C@@H](C)O)NC(=O)[C@H](Cc2ccccc2)NC(=O)[C@H](CCCCN)NC(=O)[C@@H](NC(=O)[C@H](CCC(=O)O)NC(C)=O)CSSC[C@@H](C(=O)N2CCC[C@H]2C(N)=O)NC(=O)[C@H](Cc2c[nH]c3ccccc23)NC(=O)[C@H](CCSC)NC(=O)[C@H](CCCNC(=N)N)NC(=O)CNC(=O)[C@H](CCCCN)NC(=O)[C@H](Cc2ccc(O)cc2)NC(=O)[C@H](Cc2ccc(O)cc2)NC(=O)[C@H](CC(C)C)NC(=O)[C@H](CCC(N)=O)NC(=O)[C@H](Cc2ccccc2)NC(=O)[C@H](CCCNC(=N)N)NC(=O)[C@H](CCCCN)NC1=O [LBD7] (HELM PEPTIDE1{[ac].E.C.K.F.T.V.K.P.Y.I.K.R.F.Q.L.Y.Y.K.G.R.M.W.C.P.[am]}$PEPTIDE1,PEPTIDE1,3:R3-24:R3$$$V2.0) | apparent inhibition zones | exhibited inhibition zones | 5.07 × 10^3 copies/ng DNA |  |
| CC[C@H](C)[C@@H]1NC(=O)[C@H](Cc2ccccc2)NC(=O)[C@H](Cc2ccc(O)cc2)NC(=O)[C@H](CC(C)C)NC(=O)[C@H](CCC(N)=O)NC(=O)[C@H](Cc2c[nH]c3ccccc23)NC(=O)[C@H](CCCNC(=N)N)NC(=O)[C@H](CCC(N)=O)NC(=O)[C@H](Cc2ccccc2)NC(=O)[C@H]([C@@H](C)O)NC(=O)[C@@H]2CCCN2C(=O)[C@H](CCCCN)NC(=O)[C@H](C(C)C)NC(=O)[C@H](CO)NC(=O)[C@H](Cc2ccc(O)cc2)NC(=O)[C@H](C(C)C)NC(=O)[C@@H](NC(=O)[C@H](Cc2ccc(O)cc2)NC(C)=O)CSSC[C@@H](C(=O)N2CCC[C@H]2C(N)=O)NC(=O)[C@H](Cc2c[nH]c3ccccc23)NC(=O)[C@H](CCSC)NC(=O)[C@H](CO)NC(=O)CNC1=O [LBD3] (HELM PEPTIDE1{[ac].Y.C.V.Y.S.V.K.P.T.F.Q.R.W.Q.L.Y.F.I.G.S.M.W.C.P.[am]}$PEPTIDE1,PEPTIDE1,3:R3-24:R3$$$V2.0) |  |  | 1.19 × 10^5 copies/ng DNA | Obvious inhibition zones |
| Ac-S(CRYSQRPSFKRWELYFNGRMWC)P-NH2 (disulfide) [LBD4+K, same as LBD4 except for the replacement of a tyrosine residue by a lysine residue] |  |  | 3.40 × 10^3 copies/ng DNA |  |
| Ac-FKRWQLYFRG-NH2 [sLBD2, a part (ten amino acid residues) of LBD] |  |  | 4.04 × 10^3 copies/ng DNA |  |
| CSCC[C@@H]1NC(=O)[C@H](CCCNC(=N)N)NC(=O)CNC(=O)[C@H](CCCCN)NC(=O)[C@H](Cc2ccccc2)NC(=O)[C@H](Cc2ccc(O)cc2)NC(=O)[C@H](CC(C)C)NC(=O)[C@H](CCC(=O)O)NC(=O)[C@H](Cc2ccccc2)NC(=O)[C@H](CO)NC(=O)[C@H](CCCCN)NC(=O)[C@H](C(C)C)NC(=O)[C@H]([C@@H](C)O)NC(=O)[C@@H]2CCCN2C(=O)[C@H]([C@@H](C)O)NC(=O)[C@H](C(C)C)NC(=O)[C@H](CO)NC(=O)[C@H](Cc2ccc(O)cc2)NC(=O)[C@H]([C@@H](C)O)NC(=O)[C@@H](NC(=O)[C@H](CCC(N)=O)NC(C)=O)CSSC[C@@H](C(=O)N2CCC[C@H]2C(N)=O)NC(=O)[C@H](CO)NC1=O [LBD1] (HELM PEPTIDE1{[ac].Q.C.T.Y.S.V.T.P.T.V.K.S.F.E.L.Y.F.K.G.R.M.S.C.P.[am]}$PEPTIDE1,PEPTIDE1,3:R3-24:R3$$$V2.0) | apparent inhibition zones |  | 4.36 × 10^3 copies/ng DNA | Obvious inhibition zones |
| CC(=O)N[C@@H](Cc1ccc(O)cc1)C(=O)N[C@H]1CSSC[C@@H](C(=O)N2CCC[C@H]2C(N)=O)NC(=O)[C@H](CCCCN)NC(=O)[C@H](CC(C)C)NC(=O)[C@H](CCC(=O)O)NC(=O)[C@H](C)NC(=O)[C@H](CCCNC(=N)N)NC(=O)[C@H](Cc2ccc(O)cc2)NC(=O)[C@H](Cc2c[nH]cn2)NC(=O)[C@H](C(C)C)NC(=O)[C@H](CCC(=O)O)NC(=O)[C@H](CC(C)C)NC(=O)[C@H](CCCCN)NC(=O)[C@H](CCCCN)NC(=O)[C@H](CC(C)C)NC(=O)[C@H](Cc2ccc(O)cc2)NC(=O)[C@@H]2CCCN2C(=O)[C@H](CO)NC(=O)[C@H](CCCNC(=N)N)NC(=O)[C@H](CO)NC(=O)[C@H](CC(C)C)NC(=O)[C@H](CC(C)C)NC1=O [LBD5] (HELM PEPTIDE1{[ac].Y.C.L.L.S.R.S.P.Y.L.K.K.L.E.V.H.Y.R.A.E.L.K.C.P.[am]}$PEPTIDE1,PEPTIDE1,3:R3-24:R3$$$V2.0) |  |  | 2.07 × 10^3 copies/ng DNA |  |
| CSCC[C@@H]1NC(=O)[C@H](CCCNC(=N)N)NC(=O)CNC(=O)[C@H](CCCNC(=N)N)NC(=O)[C@H](Cc2ccccc2)NC(=O)[C@H](Cc2ccc(O)cc2)NC(=O)[C@H](CC(C)C)NC(=O)[C@H](CCC(N)=O)NC(=O)[C@H](Cc2c[nH]c3ccccc23)NC(=O)[C@H](CCCNC(=N)N)NC(=O)[C@H](CCCCN)NC(=O)[C@H](Cc2ccccc2)NC(=O)[C@H](CCCCN)NC(=O)[C@@H]2CCCN2C(=O)[C@H]([C@@H](C)O)NC(=O)[C@H](C(C)C)NC(=O)[C@H](CC(N)=O)NC(=O)[C@H](Cc2ccccc2)NC(=O)[C@H](CO)NC(=O)[C@@H](NC(=O)[C@H](Cc2ccc(O)cc2)NC(C)=O)CSSC[C@@H](C(=O)N2CCC[C@H]2C(N)=O)NC(=O)[C@H](Cc2c[nH]c3ccccc23)NC1=O [LBD2] (HELM PEPTIDE1{[ac].Y.C.S.F.N.V.T.P.K.F.K.R.W.Q.L.Y.F.R.G.R.M.W.C.P.[am]}$PEPTIDE1,PEPTIDE1,3:R3-24:R3$$$V2.0) |  | exhibited inhibition zones | 1.40 × 10^3 copies/ng DNA | Obvious inhibition zones |
| CSCC[C@@H]1NC(=O)[C@H](CCCNC(=N)N)NC(=O)CNC(=O)[C@H](CC(N)=O)NC(=O)[C@H](Cc2ccccc2)NC(=O)[C@H](Cc2ccc(O)cc2)NC(=O)[C@H](CC(C)C)NC(=O)[C@H](CCC(=O)O)NC(=O)[C@H](Cc2c[nH]c3ccccc23)NC(=O)[C@H](CCCNC(=N)N)NC(=O)[C@H](Cc2ccc(O)cc2)NC(=O)[C@H](Cc2ccccc2)NC(=O)[C@H](CO)NC(=O)[C@@H]2CCCN2C(=O)[C@H](CCCNC(=N)N)NC(=O)[C@H](CCC(N)=O)NC(=O)[C@H](CO)NC(=O)[C@H](Cc2ccc(O)cc2)NC(=O)[C@H](CCCNC(=N)N)NC(=O)[C@@H](NC(=O)[C@H](CO)NC(C)=O)CSSC[C@@H](C(=O)N2CCC[C@H]2C(N)=O)NC(=O)[C@H](Cc2c[nH]c3ccccc23)NC1=O [LBD4] (HELM PEPTIDE1{[ac].S.C.R.Y.S.Q.R.P.S.F.Y.R.W.E.L.Y.F.N.G.R.M.W.C.P.[am]}$PEPTIDE1,PEPTIDE1,3:R3-24:R3$$$V2.0) | apparent inhibition zones |  | 7.24 × 10^4 copies/ng DNA |  |
| Ac-Y(CSFNVTPKFQRWQLYFRGRMWC)P-NH2 (disulfide) [LBD2-K, same as LBD2 except for the replacement of a lysine residue by a glutamine residue] |  |  | 5.14 × 10^4 copies/ng DNA |  |
| CC[C@H](C)[C@@H]1NC(=O)[C@H](Cc2ccccc2)NC(=O)[C@H](Cc2ccc(O)cc2)NC(=O)[C@H](CC(C)C)NC(=O)[C@H](CCC(=O)O)NC(=O)[C@H](Cc2ccccc2)NC(=O)CNC(=O)[C@H](CCC(N)=O)NC(=O)[C@H]([C@@H](C)CC)NC(=O)[C@H](CC(=O)O)NC(=O)[C@@H]2CCCN2C(=O)[C@H](CCCCN)NC(=O)[C@H](C(C)C)NC(=O)[C@H](CO)NC(=O)[C@H](Cc2ccc(O)cc2)NC(=O)[C@H](CO)NC(=O)[C@@H](NC(=O)[C@H](CO)NC(C)=O)CSSC[C@@H](C(=O)N2CCC[C@H]2C(N)=O)NC(=O)[C@H]([C@@H](C)O)NC(=O)[C@H](C(C)C)NC(=O)[C@H](CO)NC(=O)CNC1=O [LBD6] (HELM PEPTIDE1{[ac].S.C.S.Y.S.V.K.P.D.I.Q.G.F.E.L.Y.F.I.G.S.V.T.C.P.[am]}$PEPTIDE1,PEPTIDE1,3:R3-24:R3$$$V2.0) | apparent inhibition zones |  | 1.55 × 10^5 copies/ng DNA |  |
